Experiments:
Assay type in all cases: in vivo
[1] = test system: Septoria tritici; test: Test C: preventive spray on wheat seedlings, Septoria tritici (wheat leaf blotch), visual disease rating; settings: 100 = 100% disease control, 0 = no control, unmarked values
Outline: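 Wheat seedlings sprayed to run-off at 40 ppm or 10 ppm (160 or 40 g ai/ha) in acetone/water with surfactant, inoculated with Septoria tritici spores next day. Held 48 h saturated at 24 °C, then 21 days at 20 °C. Visual rating scored as % disease control relative to controls.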

[2] = test system: Botrytis cinerea; test: Test A: preventive spray on tomato seedlings, Botrytis cinerea (gray mold), visual disease rating; settings: 100 = 100% disease control, 0 = no control relative to controls, unmarked values
Excerpt: General protocol for preparing test suspensions for Tests A-E: the test compounds were first dissolved in acetone in an amount equal to 3% of the final volume and then suspended at the desired concentration (in ppm) in acetone and purified water (50/50 mix by volume) containing 250 ppm of the surfactant Trem® 014 (polyhydric alcohol esters). The resulting test suspensions were then used in Tests A-E. Compounds were sprayed with either a 40 ppm or 10 ppm (*) test suspension to the point of run-off on the test plants which is the equivalent of a rate of 160 g ai/ha or 40 g ai/ha, respectively.
The test suspension was sprayed to the point of run-off on tomato seedlings. The following day the seedlings were inoculated with a spore suspension of Botrytis cinerea (the causal agent of gray mold on many crops) and incubated in a saturated atmosphere at 20° C. for 48 h, and moved to a growth chamber at 27° C. for 2 days, after which time visual disease ratings were made.
Results for Tests A-E are given in Table A. In the Table, a rating of 100 indicates 100% disease control and a rating of 0 indicates no disease control (relative to the controls). A dash (-) indicates no test results.

[3] = test system: Erysiphe graminis f. sp. tritici; test: Test E: preventive spray on wheat seedlings, Erysiphe graminis f. sp. tritici (wheat powdery mildew), visual disease rating; settings: 100 = 100% disease control, 0 = no control, unmarked values
Outline: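 Wheat seedlings were sprayed to run-off with 40 or 10 ppm suspension (160 or 40 g ai/ha) and dusted with spores the next day. They were then kept 8 days at 20 °C. Disease was rated visually as % control relative to untreated controls (0–100).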

[4] = test system: Stagonospora nodorum (also known as Septoria nodorum); test: Test B: preventive spray on wheat seedlings, Stagonospora nodorum (wheat glume blotch), visual disease rating; settings: 100 = 100% disease control, 0 = no control, unmarked values
Outline: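 Compounds in acetone/water (50/50) with 250 ppm Trem 014 surfactant were sprayed to run-off at 40 ppm (160 g ai/ha) or 10 ppm (40 g ai/ha). Seedlings were inoculated with S. nodorum spores the next day, then held 48 h saturated at 20 °C and 6 days in a growth chamber at 20 °C. Visual rating as % disease control vs untreated.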

[5] = test system: Puccinia recondite f. sp. tritici; test: Test D: preventive spray on wheat seedlings, Puccinia recondite f. sp. tritici (wheat leaf rust), visual disease rating; settings: 100 = 100% disease control, 0 = no control, unmarked values
Outline: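 Wheat seedlings sprayed to run-off with 40 ppm (160 g ai/ha) or 10 ppm (40 g ai/ha) suspension in acetone/water with 250 ppm surfactant, inoculated next day with leaf rust spores. After 24 h saturated at 20 °C then 6 days at 20 °C, visual rating of disease control (0–100) relative to controls.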

Row | Structure (SMILES) | Test C disease control rating [1] [%] | Test A disease control rating [2] [%] | Test E disease control rating [3] [%] | Test B disease control rating [4] [%] | Test D disease control rating [5] [%]
1 | O=C(Nc1ccccc1-c1ccc(-n2cc(-c3ccc(F)cc3)cn2)nc1)c1ncccc1C(F)(F)F [compound 30] | 91 | 33 | 69 | 82 | 89
2 | Cn1cc(C(=O)Nc2ccccc2-c2ccc(-n3cc(Br)cn3)nc2)c(C(F)F)n1 [compound 31] | 100 | 100 | 99 | 100 | 100
3 | O=C(Nc1ccccc1-c1ccc(-n2cc(Cl)cn2)nc1)c1ncccc1C(F)(F)F [compound 32] | 100 | 99 | 99 | 100 | 100
4 | O=C(Nc1ccccc1-c1cnc(-n2ccc(C(F)(F)F)n2)c(Cl)c1)c1ccccc1C(F)(F)F [compound 33] | 100 | 15 | 99 | 60 | 100
5 | Cn1cc(C(=O)Nc2ccccc2-c2cnc(-n3ccc(C(F)(F)F)n3)c(Cl)c2)c(C(F)F)n1 [compound 35] | 100 | 97 | 100 | 100 | 100
6 | Cc1cc(-c2ccccc2NC(=O)c2ccccc2C(F)(F)F)cnc1-n1ccc(C(F)(F)F)n1 [compound 36] | 100 | 28 | 99 | 98 | 100
7 | Cc1cc(-c2ccccc2NC(=O)c2ncccc2C(F)(F)F)cnc1-n1ccc(C(F)(F)F)n1 [compound 37] | 100 | 95 | 100 | 100 | 100
8 | Cc1cc(-c2ccccc2NC(=O)c2cn(C)nc2C(F)F)cnc1-n1ccc(C(F)(F)F)n1 [compound 38] | 100 | 90 | 100 | 100 | 100
9 | O=C(Nc1ccccc1-c1ccc(-n2ccc(-c3ccccc3)n2)nc1)c1ncccc1C(F)(F)F [compound 39] | 92 | 45 | 89 | 0 | 92
10 | Cn1cc(C(=O)Nc2ccccc2-c2ccc(-n3ccc(-c4ccccc4)n3)nc2)c(C(F)F)n1 [compound 41] | 100 | 99 | 84 | 40 | 100
11 | O=C(Nc1ccccc1-c1ccc(-n2ccc(-c3ccccc3)n2)nc1)c1ccccc1C(F)(F)F [compound 42] | 87 | 40 | 21 | 0 | 68
12 | Cc1cnn(-c2ccc(-c3ccccc3NC(=O)c3ccccc3C(F)(F)F)cn2)c1 [compound 43] | 98 | 94 | 92 | 99 | 74
13 | Cc1cnn(-c2ccc(-c3ccccc3NC(=O)c3ccccc3C(F)(F)F)cn2)c1 [compound 44] | 62 | 40 | 0 | 0 | 99
14 | Cc1cnn(-c2ccc(-c3ccccc3NC(=O)c3cn(C)nc3C(F)F)cn2)c1 [compound 45] | 100 | 99 | 99 | 98 | 100
15 | Cc1cnn(-c2ccc(-c3ccccc3NC(=O)c3ncccc3Cl)cn2)c1 [compound 46] | 8 | 21 | 0 | 0 | 97
16 | O=C(Nc1ccccc1-c1ccc(-n2cc(Br)cn2)nc1)c1ncccc1Cl [compound 47] | 82 | 91 | 0 | 0 | 100
17 | COc1cc(C(F)(F)F)nn1-c1ccc(-c2ccccc2NC(=O)c2ncccc2C(F)(F)F)cn1 [compound 48] | 73 | 0 | 56 | 0 | 0
18 | Cc1cc(C)n(-c2ccc(-c3ccccc3NC(=O)c3ncccc3C(F)(F)F)cn2)n1 [compound 52] | 99 | 36 | 50 | 0 | 96
19 | O=C(Nc1ccccc1-c1ccc(-n2ccc(-c3ccccc3)n2)nc1)c1ncccc1Cl [compound 53] | 0 | 0 | 0 | 0 | 55
20 | O=C(Nc1ccccc1-c1cnc(-n2ccc(C(F)(F)F)n2)nc1)c1nccnc1Cl [compound 55] | 100 | 0 | 0 | 0 | 91
21 | O=C(Nc1ccccc1-c1ccc(-n2ccc(C(F)(F)F)n2)nn1)c1ccccc1C(F)(F)F [compound 57] | 32 | 0 | 0 | 0 | 100
22 | O=C(Nc1ccccc1-c1cnc(-n2cc(Cl)cn2)c(Cl)c1)c1ccccc1C(F)(F)F [compound 60] | 100 | 34 | 99 | 0 | 100
23 | Cn1cc(C(=O)Nc2ccccc2-c2cnc(-n3cc(Cl)cn3)c(Cl)c2)c(C(F)F)n1 [compound 62] | 100 | 84 | 98 | 0 | 100
24 | Cc1cc(-c2ccccc2NC(=O)c2ccccc2C(F)(F)F)cnc1-n1cc(Cl)cn1 [compound 63] | 92 | 27 | 72 | 0 | 99
25 | Cc1cc(-c2ccccc2NC(=O)c2ncccc2C(F)(F)F)cnc1-n1cc(Cl)cn1 [compound 64] | 100 | 98 | 96 | 60 | 100
26 | Cc1cc(-c2ccccc2NC(=O)c2cn(C)nc2C(F)F)cnc1-n1cc(Cl)cn1 [compound 65] | 100 | 99 | 94 | 97 | 100
27 | O=C(Nc1ccccc1-c1ccc(-n2cc(Cl)cn2)nc1)c1ccccc1C(F)(F)F [compound 66] | 18 | 32 | 0 | 0 | 89
28 | O=C(Nc1ccccc1-c1ccc(-n2cc(Cl)cn2)nc1)c1ncccc1Cl [compound 67] | 62 | 7 | 0 | 0 | 90

From patent publication US9730447B2, “Fungicidal amides” (E I DU PONT DE NEMOURS AND COMPANY, priority 2013, dated 2017)
